ChEMBL document CHEMBL5143540, “Design, synthesis and biological evaluation of nitrofuran-1,3,4-oxadiazole hybrids as new antitubercular agents” (Bioorg Med Chem, 2022)
In brackets after ≈: the same amount, converted by molar mass.

What was measured:
[1] = test system: Mycobacterium tuberculosis; experiment: Antitubercular activity against Mycobacterium tuberculosis H37Ra ATCC 25177 assessed as reduction in bacterial growth incubated for 7 days by Alamar blue assay; format: functional; details: H37Ra ATCC 25177, 168 h, time 7 day
[2] = Cytotoxicity against african green monkey Vero cells assessed as reduction in cell viability after 72 hrs by MTT assay; format: toxicity, cell-based; details: chlorocebus sabaeus
[3] = Half life in ICR mouse at 25 mg/kg, po measured upto 24 hrs by HPLC analysis; format: ADME, organism-based; details: in vivo
[4] = Tmax in ICR mouse at 25 mg/kg, po measured upto 24 hrs by HPLC analysis; format: ADME, organism-based; details: in vivo
[5] = Cmax in ICR mouse at 25 mg/kg, po measured upto 24 hrs by HPLC analysis; format: ADME, organism-based; parameters: dose 25 mg/kg, time < 24 hrs, route po; details: in vivo
[6] = AUC(0 to infinity) in ICR mouse at 25 mg/kg, po measured upto 24 hrs by HPLC analysis; format: ADME, organism-based; parameters: dose 25 mg/kg, time < 24 hrs, route po; details: in vivo
[7] = MRT in ICR mouse at 25 mg/kg, po measured upto 24 hrs by HPLC analysis; format: ADME, organism-based; details: in vivo
[8] = Volume of distribution in ICR mouse at 25 mg/kg, po measured upto 24 hrs by HPLC analysis; format: ADME, organism-based; details: in vivo
[9] = Clearance in ICR mouse at 25 mg/kg, po measured upto 24 hrs by HPLC analysis; format: ADME, organism-based; details: in vivo
hERG (KCNH2) = hERG (KCNH2) (Homo sapiens, UniProt Q12809); experiment: Inhibition of human ERG expressed in HEK293 cells at 10 uM by whole cell electrophysiology assay relative to control; format: toxicity, cell-based; details: HEK293 cells expressing hERG
[10] = biological target: Voltage-gated inwardly rectifying potassium channel KCNH2 (Homo sapiens, UniProt Q12809); experiment: Inhibition of human ERG expressed in HEK293 cells by whole cell electrophysiology assay; format: toxicity, cell-based
Voltage-gated inwardly rectifying potassium channel KCNH2, sequence (Q12809 whole entry): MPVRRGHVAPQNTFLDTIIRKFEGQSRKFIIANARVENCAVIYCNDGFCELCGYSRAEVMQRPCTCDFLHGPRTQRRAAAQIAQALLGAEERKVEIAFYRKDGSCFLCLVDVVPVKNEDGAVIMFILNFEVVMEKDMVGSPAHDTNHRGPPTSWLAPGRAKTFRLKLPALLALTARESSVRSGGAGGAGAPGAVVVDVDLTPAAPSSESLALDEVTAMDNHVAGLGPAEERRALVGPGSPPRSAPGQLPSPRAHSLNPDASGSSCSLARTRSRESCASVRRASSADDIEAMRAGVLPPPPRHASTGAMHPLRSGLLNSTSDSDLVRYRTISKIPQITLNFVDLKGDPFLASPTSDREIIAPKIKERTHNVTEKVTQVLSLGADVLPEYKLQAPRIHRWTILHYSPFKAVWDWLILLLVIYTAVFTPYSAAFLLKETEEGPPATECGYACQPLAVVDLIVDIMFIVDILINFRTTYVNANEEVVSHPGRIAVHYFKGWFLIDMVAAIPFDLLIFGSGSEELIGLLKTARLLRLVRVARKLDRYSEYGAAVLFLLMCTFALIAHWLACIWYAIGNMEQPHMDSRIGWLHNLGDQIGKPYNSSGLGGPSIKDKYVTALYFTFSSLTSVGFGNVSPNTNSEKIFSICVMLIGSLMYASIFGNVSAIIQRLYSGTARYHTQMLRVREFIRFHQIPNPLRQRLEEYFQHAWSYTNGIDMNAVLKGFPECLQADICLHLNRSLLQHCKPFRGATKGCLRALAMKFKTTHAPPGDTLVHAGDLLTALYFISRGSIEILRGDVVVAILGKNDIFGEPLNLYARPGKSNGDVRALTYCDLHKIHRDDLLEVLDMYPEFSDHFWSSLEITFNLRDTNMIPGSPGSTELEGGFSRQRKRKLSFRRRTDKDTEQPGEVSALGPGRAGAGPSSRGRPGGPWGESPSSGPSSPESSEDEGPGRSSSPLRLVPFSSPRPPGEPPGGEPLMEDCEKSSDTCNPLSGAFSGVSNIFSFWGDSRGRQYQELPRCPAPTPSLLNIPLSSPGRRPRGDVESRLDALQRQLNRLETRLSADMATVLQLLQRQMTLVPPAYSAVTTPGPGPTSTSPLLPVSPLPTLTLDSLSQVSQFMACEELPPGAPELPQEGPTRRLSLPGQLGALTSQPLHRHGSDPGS

hERG (KCNH2), sequence (Q12809 whole entry): as above

SMILES	MIC [1] [µg/mL]	also measured
O=C(Nc1nnc(-c2ccc(Br)cc2)o1)c1ccc([N+](=O)[O-])o1	0.795 (≈ 2.1 µM)	CC50 at 72 h [2]: 57.3 µg/mL (≈ 151 µM); half-life [3]: 270 min; Tmax [4]: 15 min; Cmax [5]: 15800 ng/mL; AUC(0-inf) [6]: 110000 ng·h/mL; MRT [7]: 382 min; Vd [8]: 1.46 L/kg; CL/F [9]: 3.79 mL/min/kg; inhibition at 10 µM (hERG (KCNH2)): 11.3%; IC50 [10]: > 10 µM
O=C(Nc1nnc(-c2ccncc2)o1)c1ccc([N+](=O)[O-])o1	0.038 (≈ 0.126 µM)	
O=[N+]([O-])c1ccc(-c2nnc(C3CCCO3)o2)o1 (configuration not stated)	2 (≈ 7.96 µM)	
O=c1nc(N2CCN(CC3CCCCC3)CC2)sc2c([N+](=O)[O-])cc(C(F)(F)F)cc12 [MACOZINONE]		Vd [8]: 56.8 L/kg; CL/F [9]: 279 mL/min/kg
O=C(Nc1nnc(-c2ccc(Cl)cc2)o1)c1ccc([N+](=O)[O-])o1	0.937 (≈ 2.8 µM)	
O=[N+]([O-])c1ccc(-c2nnc(-c3ccc(C(F)(F)F)cc3)o2)o1	0.125 (≈ 0.384 µM)	
O=C(NCc1nnc(-c2ccc(OC(F)(F)F)cc2)o1)c1ccc([N+](=O)[O-])o1	9.86 (≈ 24.8 µM)	CC50 at 72 h [2]: 3.48 µg/mL (≈ 8.74 µM)
CC(C)c1nnc(-c2ccc([N+](=O)[O-])o2)o1	0.709 (≈ 3.18 µM)	
O=C(Nc1nnc(C2CCCCC2)o1)c1ccc([N+](=O)[O-])o1	0.025 (≈ 0.0816 µM)	
O=[N+]([O-])c1ccc(-c2nnc(C3CCCCC3)o2)o1	1.97 (≈ 7.47 µM)	
O=[N+]([O-])c1ccc(-c2nnc(-c3ccc(OC(F)(F)F)cc3)o2)o1	0.178 (≈ 0.522 µM)	
O=C(Nc1nnc(-c2ccc(C(F)(F)F)cc2)o1)c1ccc([N+](=O)[O-])o1	0.999 (≈ 2.71 µM)	
CC(C)(C)c1ccc(-c2nnc(NC(=O)c3ccc([N+](=O)[O-])o3)o2)cc1	> 16	
NNC(=O)c1ccncc1 [ISONIAZID]	> 16	
CC(C)(C)c1ccc(-c2nnc(CNC(=O)c3ccc([N+](=O)[O-])o3)o2)cc1	4.83 (≈ 13 µM)	CC50 at 72 h [2]: 3.62 µg/mL (≈ 9.79 µM); half-life [3]: 40.2 min; Tmax [4]: 15 min; Cmax [5]: 139 ng/mL; AUC(0-inf) [6]: 99.3 ng·h/mL; MRT [7]: 55.2 min; Vd [8]: 227 L/kg; CL/F [9]: 4600 mL/min/kg
COc1ccc(Cc2nnc(NC(=O)c3ccc([N+](=O)[O-])o3)o2)cc1	0.02 (≈ 0.0581 µM)	

SMILES	MIC [1] [µg/mL]	also measured
O=C(NCc1nnc(-c2ccc(C(F)(F)F)cc2)o1)c1ccc([N+](=O)[O-])o1	3.73 (≈ 9.75 µM)	CC50 at 72 h [2]: 3.56 µg/mL (≈ 9.32 µM)
O=[N+]([O-])c1ccc(-c2nnc(-c3ccccc3)o2)o1	1.59 (≈ 6.17 µM)	
CO[C@H]1/C=C/O[C@@]2(C)Oc3c(C)c(O)c4c(O)c(c(/C=N/N5CCN(C)CC5)c(O)c4c3C2=O)NC(=O)/C(C)=C\C=C\[C@H](C)[C@H](O)[C@@H](C)[C@@H](O)[C@@H](C)[C@H](OC(C)=O)[C@@H]1C [RIFAMPIN]	> 16	
O=[N+]([O-])c1ccc(-c2nnc(-c3ccc(Br)cc3)o2)o1	0.597 (≈ 1.78 µM)	
O=C(Nc1nnc(-c2ccc(F)cc2)o1)c1ccc([N+](=O)[O-])o1	2.47 (≈ 7.77 µM)	
O=C(Nc1nnc(-c2ccc(OC(F)(F)F)cc2)o1)c1ccc([N+](=O)[O-])o1	1.23 (≈ 3.2 µM)	
O=C(Nc1nnc(-c2cccnc2)o1)c1ccc([N+](=O)[O-])o1	0.037 (≈ 0.123 µM)	
O=C(NCc1nnc(-c2ccccc2)o1)c1ccc([N+](=O)[O-])o1	2.43 (≈ 7.74 µM)	
COc1ccc(-c2nnc(NC(=O)c3ccc([N+](=O)[O-])o3)o2)cc1	0.191 (≈ 0.578 µM)	
O=C(Nc1nnc(-c2ccccn2)o1)c1ccc([N+](=O)[O-])o1	0.03 (≈ 0.0996 µM)	
CC(C)(C)c1ccc(-c2nnc(-c3ccc([N+](=O)[O-])o3)o2)cc1	0.06 (≈ 0.192 µM)	
CCC(CC)c1nnc(-c2ccc([N+](=O)[O-])o2)o1	0.911 (≈ 3.63 µM)	
O=C(Nc1nnc(C2CCCO2)o1)c1ccc([N+](=O)[O-])o1 (configuration not stated)	0.007 (≈ 0.0238 µM)	
COc1ccc(-c2nnc(CNC(=O)c3ccc([N+](=O)[O-])o3)o2)cc1	7.07 (≈ 20.5 µM)	
COc1ccc(-c2nnc(-c3ccc([N+](=O)[O-])o3)o2)cc1	0.475 (≈ 1.65 µM)	
